The target in test [1] is T1, recombinant α1β2γ2 GABAA receptors (Homo sapiens, UniProt P14867+P47870).
T1 construct: expressed in transfected cells; host or cells: LTK cells, stably transfected
The test is described as follows: Patch clamp electrophysiology (QPatch) in LTK cells stably transfected with α1β2γ2. It counts as cell-based. As to conditions: 10 μM compound, 2 μM GABA (EC20), read-out: GABA (α1β2γ2) Qpatch in Ltk, % efficacy at 10 μM. (Patch clamp records ionic current or voltage across a cell membrane.)

Test [2] deals with T2, recombinant α4β3δ GABAA receptors (Homo sapiens, UniProt P28472+P48169).
T2 construct: expressed in transfected cells; host or cells: CHO cells, transiently transfected (Lipofectamine)
T2 sequence (P48169 36-554): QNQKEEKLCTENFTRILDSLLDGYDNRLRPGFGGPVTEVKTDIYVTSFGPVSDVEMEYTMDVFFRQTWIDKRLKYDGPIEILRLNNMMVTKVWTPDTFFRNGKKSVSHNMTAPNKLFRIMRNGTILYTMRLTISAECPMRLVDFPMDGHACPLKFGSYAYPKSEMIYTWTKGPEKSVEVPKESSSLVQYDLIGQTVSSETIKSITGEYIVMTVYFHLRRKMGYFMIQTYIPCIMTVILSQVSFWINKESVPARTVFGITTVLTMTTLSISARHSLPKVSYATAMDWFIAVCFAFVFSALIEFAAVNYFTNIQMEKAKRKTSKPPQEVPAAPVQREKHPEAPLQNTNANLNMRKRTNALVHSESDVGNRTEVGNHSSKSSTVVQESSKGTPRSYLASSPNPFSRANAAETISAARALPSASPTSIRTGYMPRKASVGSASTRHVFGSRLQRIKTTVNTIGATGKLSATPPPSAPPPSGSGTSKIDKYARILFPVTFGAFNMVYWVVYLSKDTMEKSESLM
T2 sequence (P28472 26-473): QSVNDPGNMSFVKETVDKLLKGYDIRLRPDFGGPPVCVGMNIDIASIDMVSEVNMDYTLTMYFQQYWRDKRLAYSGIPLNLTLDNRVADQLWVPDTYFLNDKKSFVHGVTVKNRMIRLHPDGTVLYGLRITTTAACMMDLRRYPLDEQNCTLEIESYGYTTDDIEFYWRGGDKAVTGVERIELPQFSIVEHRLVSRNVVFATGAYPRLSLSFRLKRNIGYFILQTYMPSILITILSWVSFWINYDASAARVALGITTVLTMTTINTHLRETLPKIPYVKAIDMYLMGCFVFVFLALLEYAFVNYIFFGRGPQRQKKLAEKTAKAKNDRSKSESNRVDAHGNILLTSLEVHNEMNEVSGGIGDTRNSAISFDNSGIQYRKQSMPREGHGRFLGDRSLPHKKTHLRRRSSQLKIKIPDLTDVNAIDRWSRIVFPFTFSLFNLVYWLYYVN
T2 sequence (O14764 25-452 partner): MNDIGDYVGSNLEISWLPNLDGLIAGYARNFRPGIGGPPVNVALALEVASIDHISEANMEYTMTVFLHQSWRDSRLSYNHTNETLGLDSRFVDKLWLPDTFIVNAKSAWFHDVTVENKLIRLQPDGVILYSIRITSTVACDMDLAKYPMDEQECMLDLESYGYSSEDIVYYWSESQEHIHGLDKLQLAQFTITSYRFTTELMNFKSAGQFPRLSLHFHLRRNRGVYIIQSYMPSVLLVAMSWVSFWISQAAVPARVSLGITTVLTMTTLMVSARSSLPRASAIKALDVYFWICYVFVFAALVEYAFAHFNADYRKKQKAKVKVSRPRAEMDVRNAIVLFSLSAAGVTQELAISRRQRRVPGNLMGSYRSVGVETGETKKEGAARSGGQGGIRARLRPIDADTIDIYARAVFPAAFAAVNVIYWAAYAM
The test is described as follows: Manual patch clamp electrophysiology in CHO cells transiently transfected with α4β3δ. To be noted: 10 μM compound, 2 μM GABA (EC20), read-out: GABA (α4β3δ) Manual patch in CHO, % efficacy at 10 μM. In kind it is cell-based.

The target in test [3] is [35S]-TBPS binding in rat brain cortical membranes. Briefly: Steroid inhibition of [35S]-TBPS binding, rat brain cortical membranes. As to conditions: 3 nM [35S]-TBPS, in the presence of 5 μM GABA, read-out: 35S-TBPS Radioligand Displacement (IC50). The essentials: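 Washed P2 cortical membranes from Sprague-Dawley rats were incubated 90 min at room temperature with 3 nM [35S]-TBPS, 5 μM GABA and test steroid (0.5% DMSO) in 200 mM NaCl/50 mM Na–K phosphate, pH 7.4. Nonspecific binding was defined with 2 μM unlabeled TBPS, and samples were filtered and counted. IC50 and Imax came from non-linear fits, reported as mean ± SEM.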
In general terms: In a radioligand displacement assay an active substance lowers the binding of a labelled ligand.

Test [4] has as its target T3, GABAA receptors composed of the α1β2γ2 subunits (GABRA1/GABRB2/GABRG2) (Homo sapiens, UniProt P14867+P47870).
T3 construct: expressed in transfected cells; host or cells: Xenopus laevis oocytes, injected (ratio 1:1:1)
The test is described as follows: Two Electrode Voltage Clamp (TEVC), GABA receptor potentiation in Xenopus laevis oocytes, α1β2γ2. It counts as cell-based. As to conditions: 10 μM compound, 10 μM GABA, read-out: GABA (α1β2γ2) % efficacy at 10 μM. On the technique in general: Two-electrode voltage clamp holds a large cell at a set potential and records current.

Test [5] concerns the target T4, GABAA receptors composed of the α4β3δ subunits (GABRA4/GABRB3/GABRD) (Homo sapiens, UniProt P28472+P48169).
T4 construct: expressed in transfected cells; host or cells: Xenopus laevis oocytes, injected (ratio 5:1:5)
The test is described as follows: Two Electrode Voltage Clamp (TEVC), GABA receptor potentiation in Xenopus laevis oocytes, α4β3δ. In kind it is cell-based. To be noted: 10 μM compound, 3 μM GABA, read-out: GABA (α4β3δ) % efficacy at 10 μM. On the procedure: The Two Electrode Voltage Clamp (TEVC) technique was used to investigate the effects of compounds at a concentration of 10 μM on GABAA receptors composed of the α1β2γ2 or α4β3δ subunits expressed in oocytes from the Xenopus laevis. GABA-evoked currents were recorded from oocytes that expressed the GABA receptors and the modulatory effects of the test items on these currents were investigated.
Ovaries were harvested from Xenopus laevis females that had been deeply anesthetized by cooling at 4° C. and immersion in Tricaine methanesulfonate (MS-222 at a concentration of 150 mg/L) in sodium bicarbonate (300 mg/L). Once anesthetized the animal was decapitated and pithed following the rules of animal rights from the Geneva canton. A small piece of ovary was isolated for immediate preparation while the remaining part was placed at 4° C. in a sterile Barth solution containing in mM NaCl 88, KCl 1, NaHCO3 2.4, HEPES 10, MgSO4·7H2O 0.82, Ca(NO3)2·4H2O 0.33, CaCl2·6H2O 0.41, at pH 7.4, and supplemented with 20 μg/ml of kanamycin, 100 unit/ml penicillin and 100 μg/ml streptomycin. All recordings were performed at 18° C. and cells were super-fused with medium containing in mM: NaCl 82.5, KCl 2.5, HEPES 5, CaCl2·2H2O, ·6H2O 1, pH 7.4.
Plasmids containing the RNAs of the human GABRA1/GABRB2/GABRG2 and GABRA4/GABRB3/GABRD genes were injected into oocytes using a proprietary automated injection device (Hogg el al., J. Neurosci. Methods, (2008) 169: 65-75). These genes encode for the α1β2γ2 and α4β3δ GABAA subunits respectively. Receptor expression was assessed using electrophysiology at least two days later. The ratio of RNA injection for α1β2γ2 was 1:1:1 and for α4β3δ was 5:1:5. Electrophysiological recordings were made using an automated process equipped with standard TEVC and data were captured and analyzed using a proprietary data acquisition and analysis software running under Matlab (Mathworks Inc.). The membrane potential of the oocytes was maintained at −80 mV throughout the experiments. To explore the effects of proprietary compounds, currents were evoked by applying 10 μM (α1β2γ2) or 3 μM (α4β3δ) GABA for 30 s. These concentrations approximated the EC50 concentration of GABA at each receptor subtype. Oocytes were then re-exposed to GABA again for 30 s. 15 s after beginning the GABA application, test article was co-applied at a concentration of 10 μM for 15 s. Potentiation of the peak current was assessed. Data was filtered at 10 Hz, captured at 100 Hz and analyzed using proprietary data acquisition and analysis software running under Matlab (Mathworks Inc.). For statistical analysis values were computed either with Excel (Microsoft) or Matlab (mathworks Inc.). To obtain mean measurements with standard deviations, all experiments were carried out using at least three cells.

Our source for the Emax and IC50 values is patent publication US12071453B2, “Neuroactive steroids, compositions, and uses thereof” (Sage Therapeutics, Inc., priority 2013, dated 2024).

pIC50: −log10 of the molar value.

T4 sequence (P48169 36-554): as the sequence (P48169 36-554) above
T4 sequence (P28472 26-473): as the sequence (P28472 26-473) above
T4 sequence (O14764 25-452 partner): as the sequence (O14764 25-452 partner) above
T1 sequence (P14867 28-456): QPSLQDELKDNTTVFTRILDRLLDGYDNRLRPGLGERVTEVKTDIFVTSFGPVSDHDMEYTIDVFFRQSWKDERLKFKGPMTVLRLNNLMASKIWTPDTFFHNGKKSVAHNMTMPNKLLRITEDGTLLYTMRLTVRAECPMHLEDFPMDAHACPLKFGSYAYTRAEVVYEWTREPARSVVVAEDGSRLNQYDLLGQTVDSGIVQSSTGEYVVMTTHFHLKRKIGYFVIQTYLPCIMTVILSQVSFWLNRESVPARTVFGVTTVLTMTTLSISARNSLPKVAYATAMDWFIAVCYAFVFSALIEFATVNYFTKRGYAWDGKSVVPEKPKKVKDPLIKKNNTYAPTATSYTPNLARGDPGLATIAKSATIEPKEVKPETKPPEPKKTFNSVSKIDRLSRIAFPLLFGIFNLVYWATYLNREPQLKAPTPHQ
T1 sequence (P47870 26-512): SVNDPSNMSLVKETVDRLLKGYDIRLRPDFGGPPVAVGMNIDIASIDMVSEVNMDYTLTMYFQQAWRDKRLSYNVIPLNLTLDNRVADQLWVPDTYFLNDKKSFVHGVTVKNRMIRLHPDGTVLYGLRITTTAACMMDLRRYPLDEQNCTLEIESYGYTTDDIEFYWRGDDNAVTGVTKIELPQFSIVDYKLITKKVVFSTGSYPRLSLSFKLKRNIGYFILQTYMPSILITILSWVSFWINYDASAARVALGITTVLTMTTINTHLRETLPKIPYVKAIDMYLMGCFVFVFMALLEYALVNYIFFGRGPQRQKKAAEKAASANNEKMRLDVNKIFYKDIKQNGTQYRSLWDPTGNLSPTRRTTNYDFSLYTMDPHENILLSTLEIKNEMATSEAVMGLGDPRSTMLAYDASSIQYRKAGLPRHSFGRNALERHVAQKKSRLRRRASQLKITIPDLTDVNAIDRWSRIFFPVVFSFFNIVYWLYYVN
T1 sequence (P18507 40-475 partner): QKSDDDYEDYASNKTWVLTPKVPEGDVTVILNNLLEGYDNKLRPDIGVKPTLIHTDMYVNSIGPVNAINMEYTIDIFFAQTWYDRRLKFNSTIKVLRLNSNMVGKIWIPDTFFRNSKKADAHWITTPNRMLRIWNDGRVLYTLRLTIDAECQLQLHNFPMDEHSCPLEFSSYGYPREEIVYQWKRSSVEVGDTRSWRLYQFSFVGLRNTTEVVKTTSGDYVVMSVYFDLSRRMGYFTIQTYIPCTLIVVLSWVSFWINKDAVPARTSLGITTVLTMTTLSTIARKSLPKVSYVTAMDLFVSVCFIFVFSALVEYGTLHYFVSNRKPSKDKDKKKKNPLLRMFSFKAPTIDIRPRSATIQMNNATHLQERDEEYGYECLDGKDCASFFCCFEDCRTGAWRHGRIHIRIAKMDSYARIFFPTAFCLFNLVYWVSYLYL
T3 sequence (P14867 28-456): as the sequence (P14867 28-456) above
T3 sequence (P47870 26-512): as the sequence (P47870 26-512) above
T3 sequence (P18507 40-475 partner): as the sequence (P18507 40-475 partner) above

Regarding `COC[C@]12CC[C@@](C)(O)C[C@@H]1CC[C@H]1[C@@H]3CC[C@H](C(=O)Cn4nc5ccc(Cl)cc5n4)[C@@]3(C)CC[C@@H]12` [Compound 35], the Emax at 10 µM in test [1] and in test [2] was 100 to 500% each time. Besides, the pIC50 in test [3] is 7.30 to 8.00.
`COC[C@]12CC[C@@](C)(O)C[C@@H]1CC[C@H]1[C@@H]3CC[C@H](C(=O)Cn4nnc5ccc(F)c(F)c54)[C@@]3(C)CC[C@@H]12` [Compound 52]: the results for the Emax at 10 µM in test [1] and in test [2] were 100 to 500% and greater than 500%, respectively. In addition, the negative-log IC50 (pIC50) in test [3] was 7.30 to 8.00.
Take `COC[C@]12CC[C@@](C)(O)C[C@@H]1CC[C@H]1[C@@H]3CC[C@H](C(=O)Cn4ccc(C#N)n4)[C@@]3(C)CC[C@@H]12` [Compound 19]: the Emax at 10 µM in test [1] and in test [2] was 100 to 500% each time.
Consider `COC[C@]12CC[C@@](C)(O)C[C@@H]1CC[C@H]1[C@@H]3CC[C@H](C(=O)Cn4nc5ccc(F)cc5n4)[C@@]3(C)CC[C@@H]12` [Compound 43], for which the figures for the Emax at 10 µM in test [1] and in test [2] were greater than 500% and 100 to 500%, respectively. In addition, the pIC50 in test [3] was greater than 8.00.
For `COC[C@]12CC[C@@](C)(O)C[C@@H]1CC[C@H]1[C@@H]3CC[C@H](C(=O)Cn4nnc5cc(Cl)ccc54)[C@@]3(C)CC[C@@H]12` [Compound 37] the same measures were greater than 500%, greater than 500% and 7.30 to 8.00.
On the same counts, the results for `COC[C@]12CC[C@@](C)(O)C[C@@H]1CC[C@H]1[C@@H]3CC[C@H](C(=O)Cn4nccn4)[C@@]3(C)CC[C@@H]12` [Compound 1] are 100 to 500%, greater than 500% and 7.30 to 8.00.
On the same counts, the results for `COC[C@]12CC[C@@](C)(O)C[C@@H]1CC[C@H]1[C@@H]3CC[C@H](C(=O)Cn4nnnc4C)[C@@]3(C)CC[C@@H]12` [Compound 16] are greater than 500%, greater than 500% and 7.30 to 8.00.
Turning to `COC[C@]12CC[C@@](C)(O)C[C@H]1CC[C@H]1[C@@H]3CC[C@H](C(=O)Cn4nc5ccc(Cl)cc5n4)[C@@]3(C)CC[C@@H]12` [Compound 76], the Emax at 10 µM in test [1] and in test [2] was greater than 500% in each case. Besides, the pIC50 in test [3] is greater than 8.00.
Regarding `COC[C@]12CC[C@@](C)(O)C[C@@H]1CC[C@H]1[C@@H]3CC[C@H](C(=O)Cn4nc5ccc(Cl)c(F)c5n4)[C@@]3(C)CC[C@@H]12` [Compound 109], the Emax at 10 µM was in the range of 50 to 500% in test [4] and 1000 to 1500% in test [5]. The pIC50 in test [3] was 7.00 to 7.30.
For the compound `COC[C@]12CC[C@@](C)(O)C[C@@H]1CC[C@H]1[C@@H]3CC[C@H](C(=O)Cn4nnc5cccc(F)c54)[C@@]3(C)CC[C@@H]12` [Compound 47], the figures for the Emax at 10 µM in test [4] and in test [5] were 500 to 1000% and 1000 to 1500%, respectively. In addition, the pIC50 in test [3] is 7.30 to 8.00.
For `COC[C@]12CC[C@@](C)(O)C[C@@H]1CC[C@H]1[C@@H]3CC[C@H](C(=O)Cn4nc5ccc(OC(F)(F)F)cc5n4)[C@@]3(C)CC[C@@H]12` [Compound 104] the same measures were 50 to 500%, 1000 to 1500% and 7.00 to 7.30.
For `COC[C@]12CC[C@@](C)(O)C[C@@H]1CC[C@H]1[C@@H]3CC[C@H](C(=O)Cn4nnc5c(F)cccc54)[C@@]3(C)CC[C@@H]12` [Compound 48] the same measures were 500 to 1000%, 50 to 500% and 7.30 to 8.00.
For `COC[C@]12CC[C@@](C)(O)C[C@@H]1CC[C@H]1[C@@H]3CC[C@H](C(=O)Cn4cc5ncc(Cl)cc5n4)[C@@]3(C)CC[C@@H]12` [Compound 68] the same measures were 50 to 500%, 1000 to 1500% and 7.30 to 8.00.
For the compound `COC[C@]12CC[C@@](C)(O)C[C@H]1CC[C@H]1[C@@H]3CC[C@H](C(=O)Cn4cc(S(C)(=O)=O)cn4)[C@@]3(C)CC[C@@H]12` [Compound 33], the Emax at 10 µM in test [4] and in test [5] was 50 to 500% throughout. Besides, the pIC50 in test [3] is 7.30 to 8.00.
In the case of `CCOC[C@]12CC[C@@](C)(O)C[C@@H]1CC[C@H]1[C@@H]3CC[C@H](C(=O)Cn4nnnc4C)[C@@]3(C)CC[C@@H]12` [Compound 26], the results for the Emax at 10 µM in test [4] and in test [5] were 500 to 1000% and 1000 to 1500%, respectively. The pIC50 in test [3] is 7.00 to 7.30.
On the same counts, the results for `COC[C@]12CC[C@@](C)(O)C[C@@H]1CC[C@H]1[C@@H]3CC[C@H](C(=O)Cn4nc5cccc(OC)c5n4)[C@@]3(C)CC[C@@H]12` [Compound 57] are 50 to 500%, 500 to 1000% and 7.00 to 7.30.
As for `COC[C@]12CC[C@@](C)(O)C[C@@H]1CC[C@H]1[C@@H]3CC[C@H](C(=O)Cn4cc5cc(Cl)ccc5n4)[C@@]3(C)CC[C@@H]12` [Compound 106], the Emax at 10 µM is 50 to 500% in test [4] and 1000 to 1500% in test [5]. The pIC50 in test [3] is 6.30 to 7.00.
Take `CCOC[C@]12CC[C@@](C)(O)C[C@@H]1CC[C@H]1[C@@H]3CC[C@H](C(=O)Cn4nc5ccc(Cl)cc5n4)[C@@]3(C)CC[C@@H]12` [Compound 72]: the Emax at 10 µM fell in the range of 50 to 500% in test [4] and 1000 to 1500% in test [5]. Moreover, the negative logarithm of the IC50 (pIC50) in test [3] is 7.30 to 8.00.
On the same counts, the results for `CCOC[C@]12CC[C@@](C)(O)C[C@@H]1CC[C@H]1[C@@H]3CC[C@H](C(=O)Cn4nnc5ccc(Cl)cc54)[C@@]3(C)CC[C@@H]12` [Compound 70] are 50 to 500%, 1000 to 1500% and 7.00 to 7.30.
For `COC[C@]12CC[C@@](C)(O)C[C@@H]1CC[C@H]1[C@@H]3CC[C@H](C(=O)Cn4ncc5nccnc54)[C@@]3(C)CC[C@@H]12` [Compound 102] the same measures were 50 to 500%, 50 to 500% and 6.30 to 7.00.
On the same counts, the results for `COC[C@]12CC[C@@](C)(O)C[C@H]1CC[C@H]1[C@@H]3CC[C@H](C(=O)Cn4nnc(C)n4)[C@@]3(C)CC[C@@H]12` [Compound 29] are 50 to 500%, 500 to 1000% and 6.30 to 7.00.
On to `COC[C@]12CC[C@@](C)(O)C[C@@H]1CC[C@H]1[C@@H]3CC[C@H](C(=O)Cn4nnc5c(OC)cc(OC)cc54)[C@@]3(C)CC[C@@H]12` [Compound 66], for which the Emax at 10 µM fell in the range of 50 to 500% in test [4] and 1000 to 1500% in test [5]. For the same compound, the pIC50 in test [3] is 7.30 to 8.00.
On the same counts, the results for `COC[C@]12CC[C@@](C)(O)C[C@@H]1CC[C@H]1[C@@H]3CC[C@H](C(=O)Cn4nc5ccc(OC)c(OC)c5n4)[C@@]3(C)CC[C@@H]12` [Compound 64] are 1000 to 1500%, 500 to 1000% and 7.30 to 8.00.
For `CCOC[C@]12CC[C@@](C)(O)C[C@@H]1CC[C@H]1[C@@H]3CC[C@H](C(=O)Cn4nnc5cc(Cl)ccc54)[C@@]3(C)CC[C@@H]12` [Compound 71] the same measures were 50 to 500%, 1000 to 1500% and 7.30 to 8.00.

For orientation: pIC50 means −log10 of the IC50, conventionally taken in molar units.
